Test results taken from patent EP0071535B1, “(4-(2 and/or 3-Thienylacetamido)-phenoxy)-hydroxyaminopropanes, their preparation, their therapeutic use and intermediates” (CARPIBEM (CENTRE D'ACTIVITE ET DE RECHERCHE PHARMACEUTIQUE …, priority 1981, dated 1983).

How the values were obtained:
[1] = tested on: effets β2 (diminution de la pression artérielle diastolique) de l'isoprénaline; assay: β-blocking activity: inhibition of the β2 effects of intravenous isoprenaline in anaesthetised dogs; format: in vivo, chiens; details: dog; for inhibition at 0.001 mg/kg / inhibition at 0.003 mg/kg / inhibition at 0.01 mg/kg / inhibition at 0.1 mg/kg: Canis lupus familiaris, iv, inhibition given with negative sign, read-out: % d'inhibition des effets β2^⊕ de l'Isoprénaline; for inhibition at 0.001 mg/kg: 0,001 mg/kg I.V.; for inhibition at 0.003 mg/kg: 0,003 mg/kg I.V.; for inhibition at 0.01 mg/kg: 0,010 mg/kg I.V.; for inhibition at 0.1 mg/kg: 0,100 mg/kg I.V.
Experimental: (§1) Des chiens tout-venants mâles ou femelles sont anesthésiés au mébubarbital sodique (30 mg/kg I.V.) et ventilés artificiellement par une pompe Pesty RPP. Ils sont supplémentés en oxygène.
(§2) On mesure: • - la pression carotidienne systolique et diastolique • - la force contractile du myocarde.
(§3) Les signaux sont amplifiés et enregistrés sur Dynograph Beckman.
(§4) L'activité β bloquante adrénergique a été étudiée vis-à-vis des effets β1 (augmentation de la force contractile du myocarde) et des effets P2 (diminution de la pression artérielle disstolique) de l'isoprénaline administrée par voie intraveineuse.
(§5) On calcule le pourcentsge d'inhibition des effets β1 et des effets β2 de l'isoprénaline en fonction des doses (mg.kg I.V.) des différents exemples.
(§6) Les exemples sont injectés dans le veine saphène aux doses (exprimées en base) de: 0,0003 0,001 0,003 0,01 0,1 1,0 et 4,0 ou 8,0 mg.kg-1.

[2] = tested on: effets β1 (augmentation de la force contractile du myocarde) de l'isoprénaline; assay: β-blocking activity: inhibition of the β1 effects of intravenous isoprenaline in anaesthetised dogs; format: in vivo, chiens; details: dog; for inhibition at 0.001 mg/kg / inhibition at 0.003 mg/kg / inhibition at 0.01 mg/kg / inhibition at 0.1 mg/kg: Canis lupus familiaris, iv, inhibition given with negative sign, read-out: % d'inhibition des effets β1^(+) de l'Isoprénaline; for inhibition at 0.001 mg/kg: 0,001 mg/kg I.V.; for inhibition at 0.003 mg/kg: 0,003 mg/kg I.V.; for inhibition at 0.01 mg/kg: 0,010 mg/kg I.V.; for inhibition at 0.1 mg/kg: 0,100 mg/kg I.V.
Experimental: as §1, §2, §3, §4, §5, §6

[3] = tested on: rat génétiquement hypertendu: Rat OKAMOTO; assay: Antihypertensive activity in spontaneously hypertensive rats (tail-cuff systolic pressure and heart rate after oral dosing); format: in vivo
Experimental: Des rats mâles âgés de 13 à 21 semaines présentant une hypertension spontanée génétiquement transmissible (souche OKAMOTO provenance IFFA CREDO) sont placés dans une enceinte thermostatée à 38°C. Les rats sont laissés en situation libre. La pression artérielle est mesurée par un sphygmomanomètre Narco Biosystem. Un manchon est placé à la base de la queue et un détecteur enregistre le pouls en aval du manchon. Celui-ci est gonflé jusqu'à suppression du pouls il est ensuite progressivement dégonflé. La pression mesurée à la reprise des battements cardiaques est la pression artérielle systolique. On calcule la fréquence cardiaque à partir de l'enregistrement du pouls artériel. Les produits à étudiar sont mis en suspension el administrés par voie orale sous un volume de 1 ml pour 100 g de poids corporel. Les mesures sont répétées à intervalles réguliers.
Les valeurs moyennes avant traitement pour les différents lots de rats sont pour la pression artérielle systolique de 190 à 200 mmHg et pour la fréquence cardiaque de 305 à 350 battements par minute.
Le tableau III ci-après donne la moyenne des variations de la pression systolique (mmHg) de la fréquence cardisque (battements/minute) et les écarts type à la moyenne obtenus 1 heure 3 heures et 5 heures après administration orale.

[4] = 0.003 mg.kg^-1 voie intraveineuse
[5] = 0.01 mg.kg^-1 voie intraveineuse
[6] = 0.1 mg.kg^-1 voie intraveineuse
[7] = 1.0 mg.kg^-1 voie intraveineuse
[8] = 8.0 mg.kg^-1 voie intraveineuse
[9] = 0.001 mg.kg^-1 voie intraveineuse
[10] = 128 mg.kg^-1 V.O, T+5 heures, mean
[11] = 4.0 mg.kg^-1 voie intraveineuse

| Structure (SMILES) | Pourcentages d'inhibition des effets β2 de l'Isoprénaline [1, 7] [%] | inhibition at 0.001 mg/kg [1] [%] | inhibition at 0.003 mg/kg [1] [%] | inhibition at 0.01 mg/kg [1] [%] | inhibition at 0.1 mg/kg [1] [%] | Pourcentages d'inhibition des effets β1 de l'Isoprénaline [2, 9] [%] | Pourcentages d'inhibition des effets β1 de l'Isoprénaline [2, 4] [%] | Pourcentages d'inhibition des effets β1 de l'Isoprénaline [2, 5] [%] | Pourcentages d'inhibition des effets β1 de l'Isoprénaline [2, 6] [%] | Pourcentages d'inhibition des effets β1 de l'Isoprénaline [2, 7] [%] | inhibition at 0.001 mg/kg [2] [%] | inhibition at 0.003 mg/kg [2] [%] | inhibition at 0.01 mg/kg [2] [%] | inhibition at 0.1 mg/kg [2] [%] | Fréquence cardiaque Δ (battements/min) T+1 heure m (sm) ([3]; 128 mg.kg^-1 V.O) | Pression systolique Δ (mmHg) T+1 heure m (sm) ([3]; 128 mg.kg^-1 V.O) | Fréquence cardiaque Δ (battements/min) T+3 heures m (sm) ([3]; 128 mg.kg^-1 V.O) | Pression systolique Δ (mmHg) T+3 heures m (sm) ([3]; 128 mg.kg^-1 V.O) | Fréquence cardiaque Δ (battements/min) T+5 heures m (sm) ([3]; 128 mg.kg^-1 V.O, T+5 heures) | Pression systolique Δ (mmHg) T+5 heures m (sm) ([3]; 128 mg.kg^-1 V.O, T+5 heures) | further results |
| --- | --- | --- | --- | --- | --- | --- | --- | --- | --- | --- | --- | --- | --- | --- | --- | --- | --- | --- | --- | --- | --- |
| CC(C)(C)NCC(O)COc1ccc(NC(=O)Cc2cccs2)cc1C#N (stereo not drawn) [exemple 7, 1-[2-cyano 4-(2-thiénylacétamido)phénoxy] 3-terbutylamino 2-propanol] | 88 | 0 | -4 | -16 | -36 | 24 | 70 | 86 | 100 | 100 | -24 | -70 | -86 | -100 | +36 (4) battements/min | -27 (5) mmHg | +29 (4) battements/min | -27 (5) mmHg | +25 (9) battements/min | -31 (5) mmHg | Pourcentages d'inhibition des effets β2 de l'Isoprénaline [1, 4]: 4%; Pourcentages d'inhibition des effets β2 de l'Isoprénaline [1, 5]: 16%; Pourcentages d'inhibition des effets β2 de l'Isoprénaline [1, 6]: 36%; Pourcentages d'inhibition des effets β2 de l'Isoprénaline [1, 8]: 100%; Pourcentages d'inhibition des effets β1 de l'Isoprénaline [2, 8]: 100%; Pression systolique Δ (mmHg) T+1 heure m ([3]; 128 mg.kg^-1 V.O, mean): -27 mmHg; Fréquence cardiaque Δ (battements/minute) T + 3 heures m ([3]; 128 mg.kg^-1 V.O, mean): +29 battements/minute; Pression systolique Δ (mmHg) T+3 heures m ([3]; 128 mg.kg^-1 V.O, mean): -27 mmHg; Pression systolique Δ (mmHg) T+5 heures m [3, 10]: -31 mmHg |
| CC(C)NCC(O)COc1ccc(NC(=O)Cc2cccs2)cc1C#N (stereo not drawn) [exemple 8, 1-[2-cyano 4-(2-thiénylacétamido)phénoxy] 3-isopropylamino 2-propanol] | 16 | 0 | 0 | 0 | 0 | 5 | 12 | 38 | 64 | 86 | -5 | -12 | -38 | -64 | +31 (11) battements/min | -39 (8) mmHg | +36 (7) battements/min | -31 (9) mmHg | +12 (13) battements/min | -25 (5) mmHg | Pourcentages d'inhibition des effets β2 de l'Isoprénaline [1, 11]: 100%; Pourcentages d'inhibition des effets β1 de l'Isoprénaline [2, 11]: 100%; Pression systolique Δ (mmHg) T+1 heure m ([3]; 128 mg.kg^-1 V.O, mean): -39 mmHg; Fréquence cardiaque Δ (battements/minute) T + 3 heures m ([3]; 128 mg.kg^-1 V.O, mean): +36 battements/minute; Pression systolique Δ (mmHg) T+3 heures m ([3]; 128 mg.kg^-1 V.O, mean): -31 mmHg; Fréquence cardiaque Δ (battements/minute) T + 5 heures m [3, 10]: +12 battements/minute; Pression systolique Δ (mmHg) T+5 heures m [3, 10]: -25 mmHg |
| CC(C)(C)NCC(O)COc1ccc(NC(=O)Cc2ccsc2)cc1C#N (stereo not drawn) [exemple 9, 1-[2-cyano 4-(3-thiénylacétamido)phénoxy] 3-terbutylamino 2-propanol] | 100 | 0 | 0 | -8 | -42 | 22 | 74 | 91 | 100 | 100 | -22 | -74 | -91 | -100 |  |  |  |  |  |  | Pourcentages d'inhibition des effets β2 de l'Isoprénaline [1, 5]: 8%; Pourcentages d'inhibition des effets β2 de l'Isoprénaline [1, 6]: 42%; Pourcentages d'inhibition des effets β2 de l'Isoprénaline [1, 8]: 100%; Pourcentages d'inhibition des effets β1 de l'Isoprénaline [2, 8]: 100%; Fréquence cardiaque Δ (battements/min) T+1 heure m (sm) ([3]; 64 mg.kg^-1 V.O): +27 (11) battements/min; Pression systolique Δ (mmHg) T+1 heure m (sm) ([3]; 64 mg.kg^-1 V.O): -16 (4) mmHg; Fréquence cardiaque Δ (battements/min) T+3 heures m (sm) ([3]; 64 mg.kg^-1 V.O): +13 (13) battements/min; Pression systolique Δ (mmHg) T+3 heures m (sm) ([3]; 64 mg.kg^-1 V.O): -25 (8) mmHg; Fréquence cardiaque Δ (battements/min) T+5 heures m (sm) ([3]; 64 mg.kg^-1 V.O, T+5 heures): +13 (13) battements/min; Pression systolique Δ (mmHg) T+5 heures m (sm) ([3]; 64 mg.kg^-1 V.O, T+5 heures): -38 (6) mmHg |
| CC(C)NCC(O)COc1ccc(NC(=O)Cc2ccsc2)cc1C#N (stereo not drawn) [exemple 10, 1-[2-cyano 4-(3-thiénylacétamido)phénoxy] 3-isopropylamino 2-propanol] |  | -21 |  | -33 | -39 |  |  |  |  |  | -22 |  | -47 | -91 | +25 (15) battements/min | -13 (12) mmHg | +28 (7) battements/min | -5 (9) mmHg | +25 (7) battements/min | -26 (8) mmHg |  |
| CC(C)NCC(O)COc1ccc(NC(=O)Cc2ccsc2)cc1Cl (stereo not drawn) [exemple 46, 1-[2-chloro 4-(3-thiénylacétamido)phénoxy] 3-isopro-pylamino 2-propanol] |  | -5 | -5 | -20 | -19 |  |  |  |  |  | -17 | -44 | -84 | -100 |  |  |  |  |  |  |  |
| CC(C)(C)NCC(O)COc1ccc(NC(=O)Cc2cccs2)cc1F (stereo not drawn) [exemple 47, 1-[2-fluoro 4-(2-thiénylscétamido)phénoxy] 3-terbutylamino 2-propanol] |  | -24 | -4 | 0 | -12 |  |  |  |  |  | -12 | -33 | -66 | -96 |  |  |  |  |  |  |  |
